In patent publication US9597314B2, “Beta-lactamylalkanoic acids for treating premenstrual disorders” (AZEVAN PHARMACEUTICALS, INC., priority 2005, dated 2017):

Molecular target: V1a (Homo sapiens, UniProt P37288)
Assay: Human vasopression V1a receptor binding assay
Parameters: host or cells: CHO cells (hV1a cell line), whole adherent cells
Settings: hV1a cell line (CHO); for Ki: Table 18; for IC50: 1 nM 3H-AVP, Table 17, read-out: V1a Binding Affinity (IC50 (nM))
Method: Human vasopression V1a receptor binding assay. A cell line expressing the human V1a receptor in CHO cells (henceforth referred to as the hV1a cell line) was obtained from Dr. Michael Brownstein, NIMH, Bethesda, Md., USA. The hV1a cDNA sequence is described by Thibonnier et al., Journal of Biological Chemistry, 269, 3304-3310 (1994), and the expression method was the same as described by Morel et al. (1992). The hV1a cell line was grown in alpha-MEM with 10% fetal bovine serum and 250 ug/ml G418 (Gibco, Grand Island, N.Y., USA). For competitive binding assay, hV1a cells were plated into 6-well culture plate at 1:10 dilution from a confluency flask, and maintained in culture for at least two days. Culture medium was then removed, cells were washed with 2 ml binding buffer (25 mM Hepes, 0.25% BSA, 1×DMEM, PH=7.0). To each well, 990 μl binding buffer containing 1 nM 3H-AVP was added, and followed by 10 μl series diluted Example compounds dissolved in DMSO. […] 100 nM cold AVP (Sigma) was used to assess non-specific binding. Cells were incubated for 45 minutes at 37° C., assay mixture was removed and each well was washed three times with PBS (pH=7.4). 1 ml 2% SDS was added per well and plates were let sit for 30 minutes. The whole content in a well was transferred to a scintillation vial. Each well was rinsed with 0.5 ml PBS which was then added to the corresponding vial. Scintillation fluid (Ecoscint, National Diagnostics, Atlanta, Ga.) was then added at 3 ml per vial. Samples were counted in a liquid scintillation counter (Beckman LS3801). IC50 values were calculated by Prism Curve fitting software.
All of the alkanedioic esters and amides exemplified in the foregoing examples dissolved in DMSO were tested in this assay. Binding curves were generated according to methods described by Thibonnier et al. (1994). [^3H]-AVP was added to the hV1a cell cultures followed by 10 fold dilutions of each test compound.

V1a, sequence (P37288 whole entry): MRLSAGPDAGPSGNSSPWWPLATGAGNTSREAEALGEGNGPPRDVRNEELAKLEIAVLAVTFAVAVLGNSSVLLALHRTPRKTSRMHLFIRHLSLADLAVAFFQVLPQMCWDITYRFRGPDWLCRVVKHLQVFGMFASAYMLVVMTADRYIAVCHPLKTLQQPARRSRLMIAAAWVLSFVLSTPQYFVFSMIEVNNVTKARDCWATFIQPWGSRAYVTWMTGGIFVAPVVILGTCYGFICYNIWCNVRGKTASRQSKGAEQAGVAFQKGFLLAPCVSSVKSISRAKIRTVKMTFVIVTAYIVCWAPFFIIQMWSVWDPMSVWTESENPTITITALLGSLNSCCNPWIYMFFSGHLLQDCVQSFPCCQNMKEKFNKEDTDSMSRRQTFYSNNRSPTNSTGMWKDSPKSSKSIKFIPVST

Ki | IC50 | Structure (SMILES)
5.84 nM | – | O=C(NCc1cccc(C(F)(F)F)c1)[C@@H](CCC(=O)N1CCN(C2CCCCC2)CC1)N1C(=O)[C@@H](N2C(=O)OC[C@@H]2c2ccccc2)[C@H]1/C=C/c1ccccc1 [Example 139]
2.78 nM | 4.5 nM | O=C(NCc1cccc(OC(F)(F)F)c1)[C@H](CCC(=O)N1CCN(C2CCCCC2)CC1)N1C(=O)[C@@H](N2C(=O)OC[C@@H]2c2ccccc2)[C@H]1/C=C/c1ccccc1 [Example 172]
– | < 100 nM | O=C(NCc1ccc(Cl)c(Cl)c1)[C@H](CCC(=O)N1CCN(C2CCCCC2)CC1)N1C(=O)[C@@H](N2C(=O)OC[C@@H]2c2ccccc2)[C@H]1/C=C/c1ccccc1 [Example 173]
0.89 nM | 1.46 nM | O=C(NCc1cc(Cl)cc(Cl)c1)[C@H](CCC(=O)N1CCN(C2CCCCC2)CC1)N1C(=O)[C@@H](N2C(=O)OC[C@@H]2c2ccccc2)[C@H]1/C=C/c1ccccc1 [Example 174]
2.79 nM | 4.56 nM | O=C(NCc1cc(Cl)ccc1Cl)[C@H](CCC(=O)N1CCN(C2CCCCC2)CC1)N1C(=O)[C@@H](N2C(=O)OC[C@@H]2c2ccccc2)[C@H]1/C=C/c1ccccc1 [Example 175]
– | 0.61 nM | O=C(NCc1cccc(Cl)c1Cl)[C@H](CCC(=O)N1CCN(C2CCCCC2)CC1)N1C(=O)[C@@H](N2C(=O)OC[C@@H]2c2ccccc2)[C@H]1/C=C/c1ccccc1 [Example 176]
– | 0.67 nM | O=C(NCc1cc(C(F)(F)F)ccc1F)[C@H](CCC(=O)N1CCN(C2CCCCC2)CC1)N1C(=O)[C@@H](N2C(=O)OC[C@@H]2c2ccccc2)[C@H]1/C=C/c1ccccc1 [Example 177]
– | < 50 nM | O=C(NCc1ccc(F)c(C(F)(F)F)c1)[C@H](CCC(=O)N1CCN(C2CCCCC2)CC1)N1C(=O)[C@@H](N2C(=O)OC[C@@H]2c2ccccc2)[C@H]1/C=C/c1ccccc1 [Example 178]
– | 0.81 nM | O=C(NCc1cc(F)cc(C(F)(F)F)c1)[C@H](CCC(=O)N1CCN(C2CCCCC2)CC1)N1C(=O)[C@@H](N2C(=O)OC[C@@H]2c2ccccc2)[C@H]1/C=C/c1ccccc1 [Example 179]
– | 0.33 nM | O=C(NCc1cccc(C(F)(F)F)c1F)[C@H](CCC(=O)N1CCN(C2CCCCC2)CC1)N1C(=O)[C@@H](N2C(=O)OC[C@@H]2c2ccccc2)[C@H]1/C=C/c1ccccc1 [Example 180]
– | < 50 nM | O=C(NCc1ccc(Cl)c(C(F)(F)F)c1)[C@H](CCC(=O)N1CCN(C2CCCCC2)CC1)N1C(=O)[C@@H](N2C(=O)OC[C@@H]2c2ccccc2)[C@H]1/C=C/c1ccccc1 [Example 181]
– | 1.52 nM | O=C(NCc1ccccc1C(F)(F)F)[C@H](CCC(=O)N1CCN(C2CCCCC2)CC1)N1C(=O)[C@@H](N2C(=O)OC[C@@H]2c2ccccc2)[C@H]1/C=C/c1ccccc1 [Example 182]
– | < 10 nM | COc1cccc(CNC(=O)[C@H](CCC(=O)N2CCN(C3CCCCC3)CC2)N2C(=O)[C@@H](N3C(=O)OC[C@@H]3c3ccccc3)[C@H]2/C=C/c2ccccc2)c1 [Example 183]
– | < 10 nM | O=C(NCc1cccc(F)c1)[C@H](CCC(=O)N1CCN(C2CCCCC2)CC1)N1C(=O)[C@@H](N2C(=O)OC[C@@H]2c2ccccc2)[C@H]1/C=C/c1ccccc1 [Example 184]
– | 1.27 nM | O=C(NCc1cc(F)cc(F)c1)[C@H](CCC(=O)N1CCN(C2CCCCC2)CC1)N1C(=O)[C@@H](N2C(=O)OC[C@@H]2c2ccccc2)[C@H]1/C=C/c1ccccc1 [Example 185]
– | < 10 nM | O=C(NCc1ccc(F)c(Cl)c1)[C@H](CCC(=O)N1CCN(C2CCCCC2)CC1)N1C(=O)[C@@H](N2C(=O)OC[C@@H]2c2ccccc2)[C@H]1/C=C/c1ccccc1 [Example 186]
– | 1 nM | O=C(NCc1cccc(Cl)c1)[C@H](CCC(=O)N1CCN(C2CCCCC2)CC1)N1C(=O)[C@@H](N2C(=O)OC[C@@H]2c2ccccc2)[C@H]1/C=C/c1ccccc1 [Example 187]
– | 7.26 nM | O=C(NCc1cc(C(F)(F)F)cc(C(F)(F)F)c1)[C@H](CCC(=O)N1CCN(C2CCCCC2)CC1)N1C(=O)[C@@H](N2C(=O)OC[C@@H]2c2ccccc2)[C@H]1/C=C/c1ccccc1 [Example 188]
1.04 nM | 1.7 nM | O=C(NCc1cccc([N+](=O)[O-])c1)[C@H](CCC(=O)N1CCN(C2CCCCC2)CC1)N1C(=O)[C@@H](N2C(=O)OC[C@@H]2c2ccccc2)[C@H]1/C=C/c1ccccc1 [Example 189]
0.54 nM | 0.88 nM | O=C(NCc1cccc(Br)c1)[C@H](CCC(=O)N1CCN(C2CCCCC2)CC1)N1C(=O)[C@@H](N2C(=O)OC[C@@H]2c2ccccc2)[C@H]1/C=C/c1ccccc1 [Example 190]

Ki | IC50 | Structure (SMILES)
1.79 nM | 2.92 nM | O=C(NCc1ccccc1)[C@H](CCC(=O)N1CCN(C2CCCCC2)CC1)N1C(=O)[C@@H](N2C(=O)OC[C@@H]2c2ccccc2)[C@H]1/C=C/c1ccccc1 [Example 191]
– | < 10 nM | Cc1ccccc1CNC(=O)[C@H](CCC(=O)N1CCN(C2CCCCC2)CC1)N1C(=O)[C@@H](N2C(=O)OC[C@@H]2c2ccccc2)[C@H]1/C=C/c1ccccc1 [Example 192]
0.72 nM | 1.17 nM | Cc1cccc(CNC(=O)[C@H](CCC(=O)N2CCN(C3CCCCC3)CC2)N2C(=O)[C@@H](N3C(=O)OC[C@@H]3c3ccccc3)[C@H]2/C=C/c2ccccc2)c1 [Example 193]
– | < 100 nM | Cc1ccc(CNC(=O)[C@H](CCC(=O)N2CCN(C3CCCCC3)CC2)N2C(=O)[C@@H](N3C(=O)OC[C@@H]3c3ccccc3)[C@H]2/C=C/c2ccccc2)cc1 [Example 194]
– | < 50 nM | CC(NC(=O)[C@H](CCC(=O)N1CCN(C2CCCCC2)CC1)N1C(=O)[C@@H](N2C(=O)OC[C@@H]2c2ccccc2)[C@H]1/C=C/c1ccccc1)c1ccccc1 (stereo partly shown) [Example 195]
– | < 100 nM | CN(Cc1ccccc1)C(=O)[C@H](CCC(=O)N1CCN(C2CCCCC2)CC1)N1C(=O)[C@@H](N2C(=O)OC[C@@H]2c2ccccc2)[C@H]1/C=C/c1ccccc1 [Example 196]
– | < 10 nM | Cc1cc(C)cc(CNC(=O)[C@H](CCC(=O)N2CCN(C3CCCCC3)CC2)N2C(=O)[C@@H](N3C(=O)OC[C@@H]3c3ccccc3)[C@H]2/C=C/c2ccccc2)c1 [Example 199]
3.11 nM | 5.08 nM | O=C(NCCc1ccccc1)[C@H](CCC(=O)N1CCN(C2CCCCC2)CC1)N1C(=O)[C@@H](N2C(=O)OC[C@@H]2c2ccccc2)[C@H]1/C=C/c1ccccc1 [Example 200]
6.43 nM | 10.5 nM | COc1cc(CNC(=O)[C@H](CCC(=O)N2CCN(C3CCCCC3)CC2)N2C(=O)[C@@H](N3C(=O)OC[C@@H]3c3ccccc3)[C@H]2/C=C/c2ccccc2)cc(OC)c1 [Example 201]
1.5 nM | 2.46 nM | COc1cccc([C@H](C)NC(=O)[C@H](CCC(=O)N2CCN(C3CCCCC3)CC2)N2C(=O)[C@@H](N3C(=O)OC[C@@H]3c3ccccc3)[C@H]2/C=C/c2ccccc2)c1 [Example 203]
3.7 nM | 6 nM | CC(C)(NC(=O)[C@H](CCC(=O)N1CCN(C2CCCCC2)CC1)N1C(=O)[C@@H](N2C(=O)OC[C@@H]2c2ccccc2)[C@H]1/C=C/c1ccccc1)c1ccccc1 [Example 204]
0.21 nM | 0.34 nM | CN(Cc1cccc(C(F)(F)F)c1)C(=O)[C@H](CCC(=O)N1CCN(C2CCCCC2)CC1)N1C(=O)[C@@H](N2C(=O)OC[C@@H]2c2ccccc2)[C@H]1/C=C/c1ccccc1 [Example 205]
0.97 nM | 1.58 nM | C[C@H](NC(=O)[C@H](CCC(=O)N1CCN(C2CCCCC2)CC1)N1C(=O)[C@@H](N2C(=O)OC[C@@H]2c2ccccc2)[C@H]1/C=C/c1ccccc1)c1ccccc1 [Example 206]
2.74 nM | 4.48 nM | O=C(NC1(c2ccccc2)CC1)[C@H](CCC(=O)N1CCN(C2CCCCC2)CC1)N1C(=O)[C@@H](N2C(=O)OC[C@@H]2c2ccccc2)[C@H]1/C=C/c1ccccc1 [Example 207]
10 nM | 16.3 nM | O=C(NCc1ccccn1)[C@H](CCC(=O)N1CCN(C2CCCCC2)CC1)N1C(=O)[C@@H](N2C(=O)OC[C@@H]2c2ccccc2)[C@H]1/C=C/c1ccccc1 [Example 208]
9.8 nM | 16 nM | O=C(NCc1cccnc1)[C@H](CCC(=O)N1CCN(C2CCCCC2)CC1)N1C(=O)[C@@H](N2C(=O)OC[C@@H]2c2ccccc2)[C@H]1/C=C/c1ccccc1 [Example 209]
18.1 nM | 29.5 nM | O=C(NCc1ccncc1)[C@H](CCC(=O)N1CCN(C2CCCCC2)CC1)N1C(=O)[C@@H](N2C(=O)OC[C@@H]2c2ccccc2)[C@H]1/C=C/c1ccccc1 [Example 210]
3.29 nM | 5.37 nM | O=C(NCc1ccco1)[C@H](CCC(=O)N1CCN(C2CCCCC2)CC1)N1C(=O)[C@@H](N2C(=O)OC[C@@H]2c2ccccc2)[C@H]1/C=C/c1ccccc1 [Example 211]
0.58 nM | 0.95 nM | Cc1ccc(CNC(=O)[C@H](CCC(=O)N2CCN(C3CCCCC3)CC2)N2C(=O)[C@@H](N3C(=O)OC[C@@H]3c3ccccc3)[C@H]2/C=C/c2ccccc2)o1 [Example 212]
